Measured values as given in PubChem BioAssay (NCI).
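The compound was tested at five concentrations on cells cultured in 96-well plates, with a 48-hour exposure period. GI50: concentration for 50% inhibition of growth. The concentration for full growth arrest is given as TGI.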

Tests used:
Experiment in all cases: inhibition of tumour cell growth, NCI panel, 48 h
786-0 renal = test system: 786-0 renal
A498 renal = test system: A498 renal
A549 NSCLC = test system: A549 NSCLC
ACHN renal = test system: ACHN renal
BT-549 breast = test system: BT-549 breast
CAKI-1 renal = test system: CAKI-1 renal
COLO 205 colon = test system: COLO 205 colon
DU-145 prostate = test system: DU-145 prostate
EKVX NSCLC = test system: EKVX NSCLC
HCC-2998 colon = test system: HCC-2998 colon
HCT-116 colon = test system: HCT-116 colon
HCT-15 colon = test system: HCT-15 colon
HL-60(TB) leukemia = test system: HL-60(TB) leukemia
HOP-62 NSCLC = test system: HOP-62 NSCLC
HOP-92 NSCLC = test system: HOP-92 NSCLC
IGROV1 ovarian = test system: IGROV1 ovarian
K-562 leukemia = test system: K-562 leukemia
KM12 colon = test system: KM12 colon
LOX IMVI melanoma = test system: LOX IMVI melanoma
M14 melanoma = test system: M14 melanoma
MALME-3M melanoma = test system: MALME-3M melanoma
MCF7 breast = test system: MCF7 breast
MDA-MB-231 breast = test system: MDA-MB-231 breast
MDA-MB-435 = test system: MDA-MB-435
MOLT-4 leukemia = test system: MOLT-4 leukemia
NCI-H226 lung = test system: NCI-H226 lung
NCI-H23 lung = test system: NCI-H23 lung
NCI-H460 lung = test system: NCI-H460 lung
NCI-H522 lung = test system: NCI-H522 lung
NCI/ADR-RES ovarian = test system: NCI/ADR-RES ovarian
OVCAR-3 ovarian = test system: OVCAR-3 ovarian
OVCAR-4 ovarian = test system: OVCAR-4 ovarian
OVCAR-5 ovarian = test system: OVCAR-5 ovarian
OVCAR-8 ovarian = test system: OVCAR-8 ovarian
PC-3 prostate = test system: PC-3 prostate
RPMI-8226 leukemia = test system: RPMI-8226 leukemia
RXF 393 renal = test system: RXF 393 renal
SF-268 CNS = test system: SF-268 CNS
SF-295 CNS = test system: SF-295 CNS
SF-539 CNS = test system: SF-539 CNS
SK-MEL-2 melanoma = test system: SK-MEL-2 melanoma
SK-MEL-28 melanoma = test system: SK-MEL-28 melanoma
SK-OV-3 ovarian = test system: SK-OV-3 ovarian
SNB-19 CNS = test system: SNB-19 CNS
SNB-75 CNS = test system: SNB-75 CNS
SR leukemia = test system: SR leukemia
SW-620 colon = test system: SW-620 colon
T-47D breast = test system: T-47D breast
TK-10 renal = test system: TK-10 renal
U251 CNS = test system: U251 CNS
UACC-62 melanoma = test system: UACC-62 melanoma
UO-31 renal = test system: UO-31 renal
HT29 colon = test system: HT29 colon
SK-MEL-5 melanoma = test system: SK-MEL-5 melanoma
SN12C renal = test system: SN12C renal
UACC-257 melanoma = test system: UACC-257 melanoma

## N#Cc1c(-c2ccc([N+](=O)[O-])cc2)cc(-c2ccc(Nc3ccnc4cc(Cl)ccc34)cc2)[nH]c1=O
786-0 renal
  TGI: > 100 µM
A498 renal
  TGI: > 100 µM
A549 NSCLC
  TGI: > 100 µM
ACHN renal
  TGI: > 100 µM
BT-549 breast
  TGI: > 100 µM
CAKI-1 renal
  TGI: > 100 µM
COLO 205 colon
  TGI: > 100 µM
DU-145 prostate
  TGI: > 100 µM
EKVX NSCLC
  TGI: > 100 µM
HCC-2998 colon
  TGI: > 100 µM
HCT-116 colon
  TGI: > 100 µM
HCT-15 colon
  TGI: > 100 µM
HL-60(TB) leukemia
  TGI: > 100 µM
HOP-62 NSCLC
  TGI: > 100 µM
HOP-92 NSCLC
  TGI: > 100 µM
IGROV1 ovarian
  TGI: > 100 µM
K-562 leukemia
  TGI: > 100 µM
KM12 colon
  TGI: > 100 µM
LOX IMVI melanoma
  TGI: > 100 µM
M14 melanoma
  TGI: > 100 µM
MALME-3M melanoma
  TGI: > 100 µM
MCF7 breast
  TGI: > 100 µM
MDA-MB-231 breast
  TGI: > 100 µM
MDA-MB-435
  TGI: > 100 µM
MOLT-4 leukemia
  TGI: > 100 µM
NCI-H226 lung
  TGI: > 100 µM
NCI-H23 lung
  TGI: > 100 µM
NCI-H460 lung
  TGI: > 100 µM
NCI-H522 lung
  TGI: > 100 µM
NCI/ADR-RES ovarian
  TGI: > 100 µM
OVCAR-3 ovarian
  TGI: > 100 µM
OVCAR-4 ovarian
  TGI: > 100 µM
OVCAR-5 ovarian
  TGI: > 100 µM
OVCAR-8 ovarian
  TGI: > 100 µM
PC-3 prostate
  TGI: > 100 µM
RPMI-8226 leukemia
  TGI: > 100 µM
RXF 393 renal
  TGI: > 100 µM
SF-268 CNS
  TGI: > 100 µM
SF-295 CNS
  TGI: > 100 µM
SF-539 CNS
  TGI: > 100 µM
SK-MEL-2 melanoma
  TGI: > 100 µM
SK-MEL-28 melanoma
  TGI: > 100 µM
SK-OV-3 ovarian
  TGI: > 100 µM
SNB-19 CNS
  TGI: > 100 µM
SNB-75 CNS
  TGI: > 100 µM
SR leukemia
  TGI: > 100 µM
SW-620 colon
  TGI: > 100 µM
T-47D breast
  TGI: > 100 µM
TK-10 renal
  TGI: > 100 µM
U251 CNS
  TGI: > 100 µM
UACC-62 melanoma
  TGI: > 100 µM
UO-31 renal
  TGI: > 100 µM

## C#CC[C@@H]1C[C@]2(C)[C@H]3CC[C@@H]4[C@H]5C(C(=C)C)CC[C@]5(C(=O)NCCN(CCN)CCN)CC[C@@]4(C)[C@]3(C)CC[C@H]2C(C)(C)[C@H]1OC(C)=O (stereo not given in full)
NCI-H226 lung
  GI50: 2.06 µM
  TGI: 4.69 µM
OVCAR-4 ovarian
  GI50: 2.35 µM
  TGI: 5.32 µM

## O=C(NCc1cccc(CNC(=O)Nc2nc3ccccc3[nH]2)c1)Nc1nc2ccccc2[nH]1
A498 renal
  GI50: 2.07 µM
  TGI: 5.11 µM
ACHN renal
  GI50: 4.16 µM
  TGI: > 100 µM
CAKI-1 renal
  GI50: > 100 µM
  TGI: > 100 µM
HCT-15 colon
  GI50: > 100 µM
  TGI: > 100 µM
HL-60(TB) leukemia
  GI50: > 100 µM
  TGI: > 100 µM
HOP-62 NSCLC
  GI50: 1.95 µM
  TGI: 4.92 µM
HOP-92 NSCLC
  GI50: 1.25 µM
  TGI: 3.26 µM
NCI/ADR-RES ovarian
  GI50: > 100 µM
  TGI: > 100 µM
SK-MEL-2 melanoma
  GI50: 2.36 µM
  TGI: 7.1 µM
SNB-75 CNS
  GI50: 1.58 µM
  TGI: 4.18 µM
T-47D breast
  GI50: 3.33 µM
  TGI: > 100 µM

## FC(F)(F)Oc1cccc(-c2cc(NCCCCCCNc3cc(-c4cccc(OC(F)(F)F)c4)nc4ccc(N5CCCC5)cc34)c3cc(N4CCCC4)ccc3n2)c1
786-0 renal
  GI50: 1.8 µM
  TGI: 3.49 µM
A498 renal
  GI50: 2.05 µM
  TGI: 3.57 µM
A549 NSCLC
  GI50: 2.05 µM
  TGI: 4.49 µM
BT-549 breast
  GI50: 1.78 µM
  TGI: 3.72 µM
CAKI-1 renal
  GI50: 1.65 µM
  TGI: 3.01 µM
DU-145 prostate
  GI50: 2.46 µM
  TGI: 5.76 µM
HCC-2998 colon
  GI50: 1.74 µM
  TGI: 3.27 µM
HCT-116 colon
  GI50: 2.21 µM
  TGI: 5.54 µM
HCT-15 colon
  GI50: 1.84 µM
  TGI: 3.69 µM
HOP-62 NSCLC
  GI50: 2.04 µM
  TGI: 4.44 µM
HOP-92 NSCLC
  GI50: 1.54 µM
  TGI: 3.18 µM
HT29 colon
  GI50: 2.15 µM
  TGI: 4.35 µM
IGROV1 ovarian
  GI50: 1.52 µM
  TGI: 3.12 µM
KM12 colon
  GI50: 1.74 µM
  TGI: 3.27 µM
LOX IMVI melanoma
  GI50: 1.85 µM
  TGI: 3.54 µM
M14 melanoma
  GI50: 1.84 µM
  TGI: 3.65 µM
MALME-3M melanoma
  GI50: 1.68 µM
  TGI: 3.1 µM
MCF7 breast
  GI50: 1.73 µM
  TGI: 3.49 µM
MDA-MB-231 breast
  GI50: 1.72 µM
  TGI: 3.16 µM
MDA-MB-435
  GI50: 1.82 µM
  TGI: 3.27 µM
NCI-H226 lung
  GI50: 1.86 µM
  TGI: 3.69 µM
NCI-H460 lung
  GI50: 1.84 µM
  TGI: 3.4 µM
NCI-H522 lung
  GI50: 2.05 µM
  TGI: 4.76 µM
NCI/ADR-RES ovarian
  GI50: 2.07 µM
  TGI: 4.5 µM
OVCAR-3 ovarian
  GI50: 1.83 µM
  TGI: 3.24 µM
OVCAR-4 ovarian
  GI50: 1.7 µM
  TGI: 3.19 µM
OVCAR-5 ovarian
  GI50: 1.76 µM
  TGI: 3.18 µM
OVCAR-8 ovarian
  GI50: 2.13 µM
  TGI: 5.08 µM
PC-3 prostate
  GI50: 2.02 µM
  TGI: 4.42 µM
RXF 393 renal
  GI50: 1.65 µM
  TGI: 3.22 µM
SF-268 CNS
  GI50: 1.94 µM
  TGI: 3.9 µM
SF-295 CNS
  GI50: 1.69 µM
  TGI: 3.11 µM
SF-539 CNS
  GI50: 1.85 µM
  TGI: 3.33 µM
SK-MEL-2 melanoma
  GI50: 1.96 µM
  TGI: 3.63 µM
SK-MEL-28 melanoma
  GI50: 1.83 µM
  TGI: 3.3 µM
SK-MEL-5 melanoma
  GI50: 1.77 µM
  TGI: 3.22 µM
SK-OV-3 ovarian
  GI50: 1.78 µM
  TGI: 3.36 µM
SN12C renal
  GI50: 1.64 µM
  TGI: 3.06 µM
SNB-19 CNS
  GI50: 1.55 µM
  TGI: 2.98 µM
SNB-75 CNS
  GI50: 1.66 µM
  TGI: 3.16 µM
SW-620 colon
  GI50: 1.81 µM
  TGI: 3.35 µM
TK-10 renal
  GI50: 1.78 µM
  TGI: 3.37 µM
U251 CNS
  GI50: 2.11 µM
  TGI: 4.62 µM
UACC-257 melanoma
  GI50: 1.89 µM
  TGI: 3.88 µM
UACC-62 melanoma
  GI50: 1.77 µM
  TGI: 3.16 µM
UO-31 renal
  GI50: 1.54 µM
  TGI: 2.88 µM
